In PubChem BioAssay (NCI) one finds TGI and GI50 data, which are given here for 13 compounds.

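Where inhibition never reached the appropriate level, the endpoint shown equals the highest concentration tested. Otherwise, values were interpolated linearly from a five-concentration, 48-hour dose response in 96-well plates. GI50: concentration for 50% inhibition of growth. TGI: total growth inhibition.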 Bounds are passed on as bounds.

Test systems include A498 renal; CCRF-CEM leukemia; HT29 colon; MALME-3M melanoma; SF-268 CNS; SNB-75 CNS; SW-620 colon; TK-10 renal; UACC-257 melanoma; OVCAR-3 ovarian.
Holding throughout (assay): NCI tumour cell line growth inhibition, 48 h

Take `N#CC1C=Cc2ccccc2N1C(=O)Oc1ccccc1` (stereo not drawn): the TGI in the assay on A498 renal is 96.5 µM; in the assay on CCRF-CEM leukemia, 81.6 µM; in the assay with HT29 colon, above 100 µM; with MALME-3M melanoma it was above 100 µM; with SF-268 CNS it was above 100 µM; in the assay on SNB-75 CNS, above 100 µM. For the same compound, the TGI with SW-620 colon, in the assay with TK-10 renal and in the assay with UACC-257 melanoma was above 100 µM each time.
For the compound `CC1OC(OC2CCC3(C=O)C4CCC5(C)C(C6=CC(=O)OC6)CCC5(O)C4CCC3(O)C2)C(O)C(O)C1O` (stereo not drawn), the TGI with A498 renal was 0.000154 µM; with MALME-3M melanoma, 8.23e-05 µM; in the assay on SF-268 CNS, 4.11e-05 µM; with SNB-75 CNS it was 0.36 µM; in the assay with SW-620 colon it was 8.69e-05 µM; in the assay on TK-10 renal, 0.000193 µM. The same compound displayed a TGI in the assay on UACC-257 melanoma of 0.000259 µM.
Turning to `C/C=C1\C(=O)OC2CCN3CCC(COC(=O)C(C)(O)C(C)C1O)C23` (stereo not drawn), the TGI in the assay on A498 renal, in the assay on HT29 colon, in the assay with MALME-3M melanoma, with SF-268 CNS, in the assay with SNB-75 CNS and in the assay with SW-620 colon was above 100 µM in each case. In addition, the TGI in the assay with TK-10 renal and with UACC-257 melanoma was above 100 µM in each case.
As for `C=[CH][Sn]([CH]=C)([O]c1cccc2cccnc12)[O]c1cccc2cccnc12`, the GI50 in the assay with A498 renal is 5.88 µM; in the assay on HT29 colon, 3.26 µM; in the assay on MALME-3M melanoma, 3.35 µM; in the assay with OVCAR-3 ovarian it was 2.53 µM; in the assay on SF-268 CNS, 5.12 µM; in the assay with SNB-75 CNS it was 3.95 µM. The results for the GI50 in the assay on SW-620 colon, with TK-10 renal and in the assay with UACC-257 melanoma were 1.13 µM, 9.46 µM and 2.36 µM, respectively. For the same compound, the TGI stood at 14.2 µM with A498 renal; 7.14 µM with HT29 colon; 10.3 µM with MALME-3M melanoma; 10 µM in the assay with OVCAR-3 ovarian; 29.9 µM with SF-268 CNS; 14 µM with SNB-75 CNS. For the same compound, the TGI in the assay on SW-620 colon was determined as 3.44 µM; in the assay with TK-10 renal, 29.4 µM; in the assay on UACC-257 melanoma, 7.66 µM.
`CCOc1ccc(C(CN2CCOCC2)C(C)=O)cc1OC` (stereo not drawn): the TGI in the assay with A498 renal was found to be 59 µM; in the assay with CCRF-CEM leukemia it was 26.1 µM; in the assay with HT29 colon, 34.8 µM; in the assay on MALME-3M melanoma, 37.5 µM; in the assay with SF-268 CNS it was 41 µM; in the assay on SNB-75 CNS, 32.6 µM. The TGI in the assay on SW-620 colon came out at 31.2 µM; in the assay on TK-10 renal, 31 µM; with UACC-257 melanoma, 45.8 µM.
With `COc1cc([N+](=O)[O-])c2ncccc2c1[N+](=O)[O-]`, the GI50 with A498 renal was 12.3 µM; with CCRF-CEM leukemia it was 3.44 µM; in the assay with HT29 colon, 2.28 µM; in the assay with OVCAR-3 ovarian it was 2.68 µM; with SF-268 CNS, 3.72 µM; in the assay with SNB-75 CNS, 3.77 µM. Further, the values for the GI50 in the assay with SW-620 colon, with TK-10 renal and with UACC-257 melanoma were 1.82 µM, 7.04 µM and 13.5 µM, respectively. The TGI in the assay with A498 renal was determined as 32 µM; in the assay on CCRF-CEM leukemia it was 28.6 µM; in the assay with HT29 colon it was 5.52 µM; with OVCAR-3 ovarian, 6.72 µM; in the assay on SF-268 CNS, 15.3 µM; in the assay on SNB-75 CNS, 18 µM. The figures for the TGI in the assay with SW-620 colon, with TK-10 renal and with UACC-257 melanoma were 3.44 µM, 19.6 µM and 31.2 µM, respectively.
`CN1CCN(c2nc(-c3ccncc3)nc3sc4c(c23)CCCCCC4)CC1`: the GI50 with A498 renal was 1.06 µM; with CCRF-CEM leukemia it was 8.05 µM; with HT29 colon it was 4.75 µM; with OVCAR-3 ovarian, 13.5 µM; with SF-268 CNS, 5.34 µM; in the assay on SNB-75 CNS, 1.4 µM. Further, the values for the GI50 in the assay with SW-620 colon, with TK-10 renal and in the assay with UACC-257 melanoma were 11.9 µM, 6.71 µM and 10.6 µM, respectively. For the same compound, the TGI in the assay with A498 renal was found to be 7.56 µM; with CCRF-CEM leukemia it was 28.8 µM; in the assay on HT29 colon it was 17.3 µM; in the assay on OVCAR-3 ovarian, 27 µM; in the assay with SF-268 CNS, 20.7 µM; in the assay with SNB-75 CNS, 7.75 µM. Besides, the TGI in the assay with SW-620 colon stood at 25.6 µM; in the assay with TK-10 renal, 20.5 µM; in the assay with UACC-257 melanoma, 23 µM.
Turning to `CCC1CNC(=O)CC1CC(=O)OC` (stereo not drawn), the TGI in the assay with MALME-3M melanoma, in the assay with OVCAR-3 ovarian, in the assay with SF-268 CNS, in the assay with SNB-75 CNS, in the assay on SW-620 colon and in the assay on TK-10 renal was above 100 µM in each case.
On to `O=c1cc(-c2ccccn2)[nH]c2ccc(Cl)cc12`, for which the TGI was above 100 µM with CCRF-CEM leukemia; above 100 µM in the assay with HT29 colon; 62.5 µM in the assay with MALME-3M melanoma; above 100 µM with OVCAR-3 ovarian; 66.7 µM in the assay with SF-268 CNS; above 100 µM in the assay with SNB-75 CNS. Also, the TGI with SW-620 colon, with TK-10 renal and with UACC-257 melanoma was above 100 µM in each case. Also, the GI50 is 63.7 µM with OVCAR-3 ovarian and 23.4 µM in the assay with SF-268 CNS.
In the case of `O=C1CN(/N=C/c2ccc(-c3ccc(F)cc3)o2)C(=O)N1`, the TGI with A498 renal, in the assay on CCRF-CEM leukemia, in the assay on MALME-3M melanoma, in the assay on OVCAR-3 ovarian, in the assay with SF-268 CNS and with SW-620 colon was above 100 µM throughout. The TGI in the assay with TK-10 renal and with UACC-257 melanoma was above 100 µM in each case.
In the case of `O=C(Nc1cccc(NC(=O)c2cc(=O)c3ccccc3o2)n1)c1cc(=O)c2ccccc2o1`, the TGI in the assay with A498 renal, with CCRF-CEM leukemia, in the assay on MALME-3M melanoma, in the assay with OVCAR-3 ovarian, in the assay with SF-268 CNS and with SNB-75 CNS was above 100 µM throughout. The TGI with SW-620 colon, with TK-10 renal and with UACC-257 melanoma was above 100 µM each time.
Consider `CCOC(=O)[C@H]1Nc2ccccc2C2c3ccccc3CC21` (stereo partly drawn), for which the TGI in the assay on A498 renal is 61.8 µM; in the assay on HT29 colon, 37.2 µM; in the assay on MALME-3M melanoma, above 100 µM; in the assay on OVCAR-3 ovarian, above 100 µM; in the assay with SF-268 CNS, above 100 µM; in the assay with SNB-75 CNS it was above 100 µM. In addition, the figures for the TGI with SW-620 colon, in the assay with TK-10 renal and in the assay with UACC-257 melanoma were above 100 µM, above 100 µM and 56.9 µM, respectively.
On to `CCCCCCCCCCCCOP(N)(=O)OCCCCCCCCCCCC`, for which the TGI in the assay with CCRF-CEM leukemia, in the assay with MALME-3M melanoma, in the assay on OVCAR-3 ovarian, in the assay on SF-268 CNS, with SNB-75 CNS and in the assay with SW-620 colon was above 100 µM each time. Further, the TGI in the assay with TK-10 renal and in the assay on UACC-257 melanoma was above 100 µM in each case.
